# Bridge positions count the residues as written; N and C are the ends. Ends that are not written are not given here.
# System: patients with chronic idiopathic constipation (CIC)
# Test: Second phase 3 CIC trial: CSBM weekly responders by week
# Assay type: in vivo, human
# Settings: MRA
# Text: Both trials include a two-week pre-treatment baseline period, a 12-week treatment period, and a two-week post-treatment period. The phase 3 CIC program was designed to support regulatory submission in the U. S.
# The primary endpoint for both trials is the proportion of durable overall responders (%), which is the current regulatory endpoint required for U.S. approval in CIC. The FDA has defined a durable overall responder as a patient who fulfills both ≧3 complete spontaneous bowel movements (CSBMs) per week plus an increase of ≧1 CSBM from baseline in the same week, for 9 out of the 12 treatment weeks. In addition, the same patient must be an overall responder for at least 3 of the last 4 treatment weeks in order to be considered a durable overall responder.
# Patients were selected using Rome 3 criteria modified for CIC and had (1) fewer than 3 defecations per week, (2) loose stools occurring rarely without laxatives, (3) inadequate criteria for irritable bowel syndrome with constipation (IBS-C), and (4) at least two of the following applied to at least 25% of defecations: (a) straining during evacuation, (b) lumpy or hard stools, (c) sensation of anorectal obstruction or blockage. Rome 3 requires patients to fulfill the criteria for the last 3 months with symptom onset at least 6 months prior to diagnosis.
# [1] = Week 9, Active Combined, ITT Population-Excluding Duplicate Patients
# [2] = Week 9, Active Combined, ITT Population
# [3] = Week 10, 3 mg, ITT Population-Excluding Duplicate Patients
# [4] = Week 10, 6 mg, ITT Population-Excluding Duplicate Patients
# [5] = Week 10, Active Combined, ITT Population-Excluding Duplicate Patients
# [6] = Week 10, Active Combined, ITT Population
# [7] = Week 11, 3 mg, All Randomized (includes Duplicate Patients)
# [8] = Week 11, 3 mg, ITT Population-Excluding Duplicate Patients
# [9] = Week 11, 6 mg, All Randomized (includes Duplicate Patients)
# [10] = Week 11, 6 mg, ITT Population-Excluding Duplicate Patients
# [11] = Week 11, Active Combined, All Randomized (includes Duplicate Patients)
# [12] = Week 11, Active Combined, ITT Population-Excluding Duplicate Patients
# [13] = Week 11, Active Combined, ITT Population
# [14] = Week 12, 3 mg, All Randomized (includes Duplicate Patients)
# [15] = Week 12, 3 mg, ITT Population-Excluding Duplicate Patients
# [16] = Week 12, 6 mg, All Randomized (includes Duplicate Patients)
# [17] = Week 12, 6 mg, ITT Population-Excluding Duplicate Patients
# [18] = Week 12, Active Combined, All Randomized (includes Duplicate Patients)
# [19] = Week 12, Active Combined, ITT Population-Excluding Duplicate Patients
# [20] = Week 12, Active Combined, ITT Population
substance,measurement,setting,value
"Asn^1-Asp^2-Glu^3-Cys^4-Glu^5-Leu^6-Cys^7-Val^8-Asn^9-Val^10-Ala^11-Cys^12-Thr^13-Gly^14-Cys^15-Leu^16 (NDECELCVNVACTGCL; disulfide 4-12, 7-15) [Plecanatide, uroguanylin analogue, guanylate cyclase-C agonist; (C4:C12, C7:C15) bicycle peptide]",Odds Ratio (adjusted),"Week 9, 6 mg vs placebo, ITT Population",0.727
same,"CSBM Weekly Responders, n (%)",[1],286 (32.6) n (%)
same,"Non-Responders, n (%)",[1],591 (67.4) n (%)
same,"CSBM Weekly Responders, n (%)",[2],288 (32.3) n (%)
same,"Non-Responders, n (%)",[2],604 (67.7) n (%)
same,Difference in Proportions (adjusted),"Week 10, 3 mg minus placebo, All Randomized (includes Duplicate Patients)",0.067
same,Odds Ratio (adjusted),"Week 10, 3 mg vs placebo, All Randomized (includes Duplicate Patients)",0.708
same,"Non-Responders, n (%)","Week 10, 3 mg, All Randomized (includes Duplicate Patients)",328 (69.8) n (%)
same,"CSBM Weekly Responders, n (%)","Week 10, 3 mg, ITT Population",137 (30.9) n (%)
same,"Non-Responders, n (%)","Week 10, 3 mg, ITT Population",306 (69.1) n (%)
same,"CSBM Weekly Responders, n (%)",[3],136 (31.3) n (%)
same,"Non-Responders, n (%)",[3],298 (68.7) n (%)
same,Difference in Proportions (adjusted),"Week 10, 6 mg minus placebo, All Randomized (includes Duplicate Patients)",0.097
same,Odds Ratio (adjusted),"Week 10, 6 mg vs placebo, All Randomized (includes Duplicate Patients)",0.619
same,"Non-Responders, n (%)","Week 10, 6 mg, All Randomized (includes Duplicate Patients)",315 (66.9) n (%)
same,"CSBM Weekly Responders, n (%)","Week 10, 6 mg, ITT Population",154 (34.3) n (%)
same,"Non-Responders, n (%)","Week 10, 6 mg, ITT Population",295 (65.7) n (%)
same,"CSBM Weekly Responders, n (%)",[4],153 (34.5) n (%)
same,"Non-Responders, n (%)",[4],290 (65.5) n (%)
same,"Non-Responders, n (%)","Week 10, Active Combined, All Randomized (includes Duplicate Patients)",643 (68.3) n (%)
same,Difference in Proportions (adjusted),"Week 10, 3 mg minus placebo, ITT Population-Excluding Duplicate Patients",0.064
same,Difference in Proportions (adjusted),"Week 10, 3 mg minus placebo, ITT Population",0.062
same,Odds Ratio (adjusted),"Week 10, 3 mg vs placebo, ITT Population-Excluding Duplicate Patients",0.729
same,Odds Ratio (adjusted),"Week 10, 3 mg vs placebo, ITT Population",0.734
same,Difference in Proportions (adjusted),"Week 10, 6 mg minus placebo, ITT Population-Excluding Duplicate Patients",0.096
same,Difference in Proportions (adjusted),"Week 10, 6 mg minus placebo, ITT Population",0.096
same,Odds Ratio (adjusted),"Week 10, 6 mg vs placebo, ITT Population-Excluding Duplicate Patients",0.630
same,Odds Ratio (adjusted),"Week 10, 6 mg vs placebo, ITT Population",0.629
same,"CSBM Weekly Responders, n (%)",[5],289 (33.0) n (%)
same,"Non-Responders, n (%)",[5],588 (67.0) n (%)
same,"CSBM Weekly Responders, n (%)",[6],291 (32.6) n (%)
same,"Non-Responders, n (%)",[6],601 (67.4) n (%)
same,Difference in Proportions (adjusted),"Week 11, 3 mg minus placebo, All Randomized (includes Duplicate Patients)",0.089
same,Odds Ratio (adjusted),"Week 11, 3 mg vs placebo, All Randomized (includes Duplicate Patients)",0.643
same,"CSBM Weekly Responders, n (%)",[7],153 (32.6) n (%)
same,"Non-Responders, n (%)",[7],317 (67.4) n (%)
same,"CSBM Weekly Responders, n (%)","Week 11, 3 mg, ITT Population",147 (33.2) n (%)
same,"Non-Responders, n (%)","Week 11, 3 mg, ITT Population",296 (66.8) n (%)
same,"CSBM Weekly Responders, n (%)",[8],147 (33.9) n (%)
same,"Non-Responders, n (%)",[8],287 (66.1) n (%)
same,Difference in Proportions (adjusted),"Week 11, 6 mg minus placebo, All Randomized (includes Duplicate Patients)",0.082
same,Odds Ratio (adjusted),"Week 11, 6 mg vs placebo, All Randomized (includes Duplicate Patients)",0.664
same,"CSBM Weekly Responders, n (%)",[9],150 (31.8) n (%)
same,"Non-Responders, n (%)",[9],321 (68.2) n (%)
same,"CSBM Weekly Responders, n (%)","Week 11, 6 mg, ITT Population",145 (32.3) n (%)
same,"Non-Responders, n (%)","Week 11, 6 mg, ITT Population",304 (67.7) n (%)
same,"CSBM Weekly Responders, n (%)",[10],144 (32.5) n (%)
same,"Non-Responders, n (%)",[10],299 (67.5) n (%)
same,"CSBM Weekly Responders, n (%)",[11],303 (32.2) n (%)
same,"Non-Responders, n (%)",[11],638 (67.8) n (%)
same,Difference in Proportions (adjusted),"Week 11, 3 mg minus placebo, ITT Population-Excluding Duplicate Patients",0.089
same,Difference in Proportions (adjusted),"Week 11, 3 mg minus placebo, ITT Population",0.086
same,Odds Ratio (adjusted),"Week 11, 3 mg vs placebo, ITT Population-Excluding Duplicate Patients",0.649
same,Odds Ratio (adjusted),"Week 11, 3 mg vs placebo, ITT Population",0.654
same,Difference in Proportions (adjusted),"Week 11, 6 mg minus placebo, ITT Population-Excluding Duplicate Patients",0.076
same,Difference in Proportions (adjusted),"Week 11, 6 mg minus placebo, ITT Population",0.078
same,Odds Ratio (adjusted),"Week 11, 6 mg vs placebo, ITT Population-Excluding Duplicate Patients",0.690
same,Odds Ratio (adjusted),"Week 11, 6 mg vs placebo, ITT Population",0.68
same,"CSBM Weekly Responders, n (%)",[12],291 (33.2) n (%)
same,"Non-Responders, n (%)",[12],586 (66.8) n (%)
same,"CSBM Weekly Responders, n (%)",[13],292 (32.7) n (%)
same,"Non-Responders, n (%)",[13],600 (67.3) n (%)
same,Difference in Proportions (adjusted),"Week 12, 3 mg minus placebo, All Randomized (includes Duplicate Patients)",0.068
same,Odds Ratio (adjusted),"Week 12, 3 mg vs placebo, All Randomized (includes Duplicate Patients)",0.711
same,"CSBM Weekly Responders, n (%)",[14],145 (30.9) n (%)
same,"Non-Responders, n (%)",[14],325 (69.1) n (%)
same,"CSBM Weekly Responders, n (%)","Week 12, 3 mg, ITT Population",140 (31.6) n (%)
same,"Non-Responders, n (%)","Week 12, 3 mg, ITT Population",303 (68.4) n (%)
same,"CSBM Weekly Responders, n (%)",[15],140 (32.3) n (%)
same,"Non-Responders, n (%)",[15],294 (67.7) n (%)
same,Difference in Proportions (adjusted),"Week 12, 6 mg minus placebo, All Randomized (includes Duplicate Patients)",0.088
same,Odds Ratio (adjusted),"Week 12, 6 mg vs placebo, All Randomized (includes Duplicate Patients)",0.647
same,"CSBM Weekly Responders, n (%)",[16],155 (32.9) n (%)
same,"Non-Responders, n (%)",[16],316 (67.1) n (%)
same,"CSBM Weekly Responders, n (%)","Week 12, 6 mg, ITT Population",151 (33.6) n (%)
same,"Non-Responders, n (%)","Week 12, 6 mg, ITT Population",298 (66.4) n (%)
same,"CSBM Weekly Responders, n (%)",[17],150 (33.9) n (%)
same,"Non-Responders, n (%)",[17],293 (66.1) n (%)
same,"CSBM Weekly Responders, n (%)",[18],300 (31.9) n (%)
same,"Non-Responders, n (%)",[18],641 (68.1) n (%)
same,Difference in Proportions (adjusted),"Week 12, 3 mg minus placebo, ITT Population-Excluding Duplicate Patients",0.066
same,Difference in Proportions (adjusted),"Week 12, 3 mg minus placebo, ITT Population",0.062
same,Odds Ratio (adjusted),"Week 12, 3 mg vs placebo, ITT Population-Excluding Duplicate Patients",0.724
same,Odds Ratio (adjusted),"Week 12, 3 mg vs placebo, ITT Population",0.737
same,Difference in Proportions (adjusted),"Week 12, 6 mg minus placebo, ITT Population-Excluding Duplicate Patients",0.082
same,Difference in Proportions (adjusted),"Week 12, 6 mg minus placebo, ITT Population",0.082
same,Odds Ratio (adjusted),"Week 12, 6 mg vs placebo, ITT Population-Excluding Duplicate Patients",0.673
same,Odds Ratio (adjusted),"Week 12, 6 mg vs placebo, ITT Population",0.672
same,"CSBM Weekly Responders, n (%)",[19],290 (33.1) n (%)
same,"Non-Responders, n (%)",[19],587 (66.9) n (%)
same,"CSBM Weekly Responders, n (%)",[20],291 (32.6) n (%)
same,"Non-Responders, n (%)",[20],601 (67.4) n (%)

# From patent publication US20160367623A1, “AGONISTS OF GUANYLATE CYCLASE USEFUL FOR THE TREATMENT OF GASTROINTESTINAL DISORDERS, INFLAMMATION, CANCER AND OTHER DISORDERS” (priority 2015, published 2016)
